# Literature values in patent US20130158362A1 (INFACARE PHARMACEUTICAL CORPORATION, priority 2011, published 2013).
# Conditions: animal studies; doses approximately equivalent to the proposed human dose; cited from earlier work
substance,measurement,value
tin IV mesoporphyrin IX dichloride [Stannsoporfin],"effects on ECG, central nervous system, cardiovascular, pulmonary and renal functions",no biologically significant effects
